Test results from patent US5523314A, “Compounds useful as hypoglycemic agents and for treating Alzheimer's disease” (priority 1994, dated 1996).
Like-named read-outs stand apart in the source and are kept apart here.

Assays:
[1] = system: blood glucose level; experiment: Hypoglycemic activity in normal fed rats (Table 2); assay type: in vivo, male Sprague Dawley rats; conditions: Rattus norvegicus, oral
Experimental: The procedure used in this test system is described below.
The desired dose level of each test formulation was administered to four rats by oral […] at the beginning of the experiment. Blood glucose levels were determined immediately before the first dose and at 3 and 5 hours thereafter by an enzymatic procedure employing glucose oxidase and peroxidase coupled with a chromogenic oxygen acceptor. A mean was taken of the 4 values obtained before the first dose and at the 3 and 5 hour intervals.

[2] = molecular target: T1, Human liver cathepsin D (Homo sapiens, UniProt P07339); experiment: Cathepsin D inhibition, fluorometric assay (Tables 5 and 6); assay type: biochemical; conditions: for inhibition at 4.15 µg/mL (stock): Compound Stock Concentration 4.15 μg/ml; for inhibition at 8.3 µg/mL (stock): Compound Stock Concentration 8.3 μg/ml; for inhibition at 10 µg/mL (stock): Compound Stock Concentration 10.0 μg/ml
T1 construct: purchased Athens Research and Technology, Athens, Ga; host or cells: human liver
Experimental: Human liver cathepsin D (Athens Research and Technology, Athens, Ga.) was diluted in assay buffer, 200 mM NaOAc, pH 4.5, 150 mM NaCl to 500 ng/mL and then 100 μL of this cathepsin D solution was added to each well of a 96 well plate with the exception of control wells which received just 100 μL of assay buffer. […] Blank and enzyme control wells each received 5 μL of the DMSO vehicle.
After incubation at 37° C. for 30 minutes, cathepsin D activity was terminated by the addition of 100 μL per well of 400 mU/mL microsomal leucine aminopeptidase (EC 3.4.11.2, Sigma, St. Louis, Mo.) in 1M Tris-HCl, pH 8.0.
Following a two hour incubation at 37° C., to allow the aminopeptidase to release the fluorophore, 7-amido-4-methylcoumarin (AMC) from the products of cathepsin D cleavage, the plates were again analyzed in the fluorometer. In order to check for potential false positives, i.e., inhibitors of microsomal leucine aminopeptidase, residual aminopeptidase activity was monitored directly in each well by the addition of 20 μL/well of 2.5 mM Leu-pNA (Bachem Biosciences, Philadelphia, Pa.) in 10% DMSO.

[3] = system: blood glucose level; experiment: Hypoglycemic activity in obese diabetic mice (Table 1); assay type: in vivo, male viable yellow obese-diabetic mice; conditions: Mus musculus, ip, intraperitoneal
How it was run: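 Male viable yellow obese-diabetic mice, six per group, dosed intraperitoneally once with compound in saline containing 2% Emulphor. Blood glucose measured by glucose oxidase before dosing and at 2 and 4 h. Values are the 2 h and 4 h glucose as % of pre-dose level.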

[4] = system: β-amyloid protein; experiment: β-amyloid protein production inhibition in 293 751 SWE and CHO 751 SWE cells, ELISA (Table 7); assay type: cell-based; conditions: normalized for cytotoxicity; for inhibition at 10 µg/mL (stock): Compound Stock Concentration 10.0 μg/ml; for inhibition at 0.31 µg/mL (stock): Compound Stock Concentration 0.31 μg/ml; for inhibition at 0.62 µg/mL (stock): Compound Stock Concentration 0.62 μg/ml; for inhibition at 1.25 µg/mL (stock): Compound Stock Concentration 1.25 μg/ml; for inhibition at 2.5 µg/mL (stock): Compound Stock Concentration 2.5 μg/ml; for inhibition at 5 µg/mL (stock): Compound Stock Concentration 5.0 μg/ml
Experimental: Two cell lines (human kidney cell line 293 and Chinese hamster ovary cell line CHO) were stably transfected with the gene for APP751 containing the double mutation Lys-651-Met-652 to Asn-651-Leu-652 (APP-751 numbering) commonly called the Swedish mutation using the method described in Citron et al., Nature 360:672-674 (1992). The transfected cell lines were designated as 293 751 SWE and CHO 751 SWE, and were plated in Corning 96 well plates at 2.5×10^4 or 1×10^4 cells per well respectively in Dulbecco's minimal essential media (DMEM) plus 10% fetal bovine serum. […] These compound stocks were prepared by dissolving a sufficient quantity of the particular compound to be tested in DMSO such that various concentrations were obtained. After this pretreatment period, the conditioned media was removed and replaced with fresh conditioned media and the cells were incubated for an additional two hours.
After treatment, plates were centrifuged in a Beckman GPR at 1200 rpm for five minutes at room temperature to pellet cellular debris from the conditioned media. From each well, 100 μL of conditioned media were transferred into an ELISA plate precoated with antibody 266 [Seubert et al., Nature, 359:325-327 (1992)] and stored at 4° C. overnight prior to the completion of the ELISA assay the next day.
Cytotoxic effects of the compounds were measured by a modification of the method of Hansen et al., J. Immun. Meth. 119:203-210 (1989). To the cells remaining in the tissue culture plate, was added 25 μL of a 3-(4,5-dimethylthiazol-2-yl)-2,5-diphenyltetrazolium bromide (MTT) stock solution (5 mg/mL) to a final concentration of 1 mg/mL. Cells were incubated at 37° C. for one hour, and cellular activity was stopped by the addition of an equal volume of MTT lysis buffer (20% w/v sodium dodecylsulfate in 50% DMF, pH 4.7). Complete extraction was achieved by overnight shaking at room temperature. The difference in the OD562nm and the OD650nm was measured in a Molecular Devices UVmax microplate reader as an indicator of the cellular viability.
The results of the β-amyloid protein ELISA were fit to a standard curve and expressed as ng/mL β-amyloid protein peptide. In order to normalize for cytotoxicity, these β-amyloid protein results were divided by the cytotoxicity results and expressed as a percentage of the results from a drug-free control.

[5] = system: plasma glucose concentration; experiment: Long-term hypoglycemic activity, compound in diet, ZDF rats (Table 4); assay type: in vivo, 8 week old male Zucker Diabetic Fatty rat; conditions: 0.1% in diet
Experimental: Finally, the long-term hypoglycemic activity of the compounds of the present invention was tested in yet another in vivo test system. This long-term test system entailed incorporating test compound into the test animal's diet at various concentrations (control animal's diet contained no test compound). Such diet was then fed to the test or control animals for either 14 or 21 days. Each test or control animal was then bled from the tail (200-400 μl sample of blood) at 0 (before diet started), 7, 14 and, if appropriate, 21 and 28 days after diet administration was started. Plasma samples were then obtained from each blood sample collected and the glucose concentration of such plasma samples was determined enzymatically.
Columns 4-8 provide the plasma glucose concentration at days 0, 7, 14 and, if appropriate, 21 and 28, respectively, for the animals tested. Glucose lowering was not associated with depressed diet consumption.

[6] = 3 hrs, read-out: Percent of Initial Blood Glucose Level After 3 hrs.
[7] = 5 hrs, read-out: Percent of Initial Blood Glucose Level After 5 hrs.
[8] = 2 h, 2 hrs, read-out: Percent of Initial Blood Glucose Level After 2 hrs.
[9] = 4 h, 4 hrs, read-out: Percent of Initial Blood Glucose Level After 4 hrs.
[10] = 2 hrs, read-out: Percent of Initial Blood Glucose Level After 2 hrs.
[11] = 4 hrs, read-out: Percent of Initial Blood Glucose Level After 4 hrs.

T1 sequence (P07339 169-412 limits assumed): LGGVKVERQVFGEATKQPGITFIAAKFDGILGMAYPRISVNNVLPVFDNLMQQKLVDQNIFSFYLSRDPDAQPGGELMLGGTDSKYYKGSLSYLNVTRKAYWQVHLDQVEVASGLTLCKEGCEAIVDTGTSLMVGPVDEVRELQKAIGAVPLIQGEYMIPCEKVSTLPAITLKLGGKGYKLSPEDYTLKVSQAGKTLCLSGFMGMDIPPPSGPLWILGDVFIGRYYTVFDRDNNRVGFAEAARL
T1 sequence (P07339 65-161 limits assumed): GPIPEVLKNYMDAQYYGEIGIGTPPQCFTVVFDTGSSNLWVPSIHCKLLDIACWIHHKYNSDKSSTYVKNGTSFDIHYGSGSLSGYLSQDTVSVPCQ

inhibition at 4.15 µg/mL (stock) [2]	IC50 [2]	Structure (SMILES)	response vs control in vivo at 200 mg/kg [1, 6]	response vs control in vivo at 200 mg/kg [1, 7]	response vs control in vivo at 50 mg/kg [3, 8]	response vs control in vivo at 50 mg/kg [3, 9]	inhibition at 10 µg/mL (stock) [4]	further results
53%	–	COc1cc(C=C2SC(=S)NC2=O)cc(OC)c1O [Example 63, 5-[(3,5-dimethoxy-4-hydroxyphenyl)methylene]-2-thioxo-4-thiazolidinone]	69%	52%	–	–	–	–
75%	–	CCOc1cc(C=C2SC(=S)NC2=O)ccc1O [Example 32, 5-[(3-ethoxy-4-hydroxyphenyl)methylene]-2-thioxo-4-thiazolidinone]	100%	96%	75 ± 4%	80 ± 8%	–	–
–	3.6 µM	O=C1NC(=S)SC1=Cc1ccc(Oc2ccccc2)cc1 [Example 5, 5-[(4-phenoxyphenyl)methylene]-2-thioxo-4-thiazolidinone]	–	–	79 ± 4%	71 ± 3%	47%	inhibition at 8.3 µg/mL (stock) [2]: 100%; inhibition at 10 µg/mL (stock) [2]: 76%
78%	1.7 µM	O=C1NC(=S)SC1=Cc1ccc(-c2ccccc2)cc1 [Example 42, 5-[[(1,1'-biphenyl)-4-yl]methylene]-2-thioxo-4-thiazolidinone]	–	–	87 ± 8%	70 ± 8%	51%	inhibition at 0.31 µg/mL (stock) [4]: 8%; inhibition at 0.62 µg/mL (stock) [4]: 11%; inhibition at 1.25 µg/mL (stock) [4]: 14%; inhibition at 2.5 µg/mL (stock) [4]: 16%; inhibition at 5 µg/mL (stock) [4]: 35%; inhibition at 10 µg/mL (stock) [2]: 87.5%
53.7%	10.2 µM	CCCCCCOc1ccc(C=C2SC(=S)NC2=O)cc1OC [Example 68, 5-[(3-methoxy-4-hexoxyphenyl)methylene]-2-thioxo-4-thiazolidinone]	88%	89%	–	–	–	–
–	–	COc1cccc(C=C2SC(=S)NC2=O)c1OC [Example 24, 5-[(2,3-dimethoxyphenyl)methylene]-2-thioxo-4-thiazolidinone]	100%	100%	78 ± 4%	80 ± 5%	–	–
–	–	COc1cccc(C=C2SC(=S)NC2=O)c1 [Example 25, 5-[(3-methoxyphenyl)methylene]-2-thioxo-4-thiazolidinone]	100%	100%	–	–	–	response vs control in vivo at 25 mg/kg [3, 10]: 84 ± 5%; response vs control in vivo at 25 mg/kg [3, 11]: 87 ± 6%; response vs control in vivo at 50 mg/kg [3, 10]: 78 ± 4%; response vs control in vivo at 50 mg/kg [3, 11]: 74 ± 4%
–	–	O=C1NC(=S)SC1=Cc1ccco1 [Example 15, 5-[(2-furanyl)methylene]-2-thioxo-4-thiazolidinone]	–	–	73 ± 5%	62 ± 4%	–	response vs control in vivo at 167 mg/kg [1, 6]: 84%; response vs control in vivo at 167 mg/kg [1, 7]: 87%
64%	3.7 µM	O=C1NC(=S)SC1=Cc1cccc(Oc2ccccc2)c1 [Example 77, 5-[(3-phenoxyphenyl)methylene]-2-thioxo-4-thiazolidinone]	–	–	–	–	25%	inhibition at 10 µg/mL (stock) [2]: 87%
–	–	CCCOc1ccc(C=C2SC(=S)NC2=O)cc1 [Example 61, 5-[(4-propoxyphenyl)methylene]-2-thioxo-4-thiazolidinone]	89%	82%	–	61 ± 5%	–	–
–	–	COc1ccccc1C=C1SC(=S)NC1=O [Example 26, 5-[(2-methoxyphenyl)methylene]-2-thioxo-4-thiazolidinone]	100%	100%	80 ± 4%	75 ± 2%	–	–
–	–	CCCCCOc1ccc(CC2SC(=S)NC2=O)cc1OC (stereo not shown) [Example 64, 5-[(3-methoxy-4-pentoxyphenyl)methyl]-2-thioxo-4-thiazolidinone]	91%	89%	–	–	–	Plasma Glucose Concentration ([5]; day 0 (before diet started)): 339 mg/dL; Plasma Glucose Concentration ([5]; day 7): 187 mg/dL; Plasma Glucose Concentration ([5]; day 14): 182 mg/dL

Structure (SMILES)	inhibition at 4.15 µg/mL (stock) [2]	IC50 [2]	response vs control in vivo at 200 mg/kg [1, 6]	response vs control in vivo at 200 mg/kg [1, 7]	response vs control in vivo at 50 mg/kg [3, 8]	response vs control in vivo at 50 mg/kg [3, 9]	inhibition at 10 µg/mL (stock) [4]	further results
CCCCCCCCOc1ccc(C=C2SC(=S)NC2=O)cc1OC [Example 69, 5-[(3-methoxy-4-octoxyphenyl)methylene]-2-thioxo-4-thiazolidinone]	51%	2.1 µM	93%	88%	–	–	–	–
CCCCCCCOc1ccc(C=C2SC(=S)N(N(C)C)C2=O)cc1OC [Example 81, 5-[(3-methoxy-4-heptoxyphenyl)methylene]-2-thioxo-3-dimethylamino-4-thiazolidinone]	–	319 µM	–	–	–	–	100%	inhibition at 8.3 µg/mL (stock) [2]: 21%
CCCCCCCOc1ccc(C=C2SC(=S)NC2=O)cc1OC [Example 31, 5-[(3-methoxy-4-heptoxyphenyl)methylene]-2-thioxo-4-thiazolidinone]	69.5%	1.9 µM	95%	92%	76 ± 7%	76 ± 5%	57%	inhibition at 0.31 µg/mL (stock) [4]: 0%; inhibition at 0.62 µg/mL (stock) [4]: 7%; inhibition at 1.25 µg/mL (stock) [4]: 15%; inhibition at 2.5 µg/mL (stock) [4]: 28%; inhibition at 5 µg/mL (stock) [4]: 37%; inhibition at 10 µg/mL (stock) [2]: 88.5%
